One data set concerns the target human PAI-1 (Homo sapiens, UniProt P05121). As to the kind of experiment: Assay for Determining IC50 of Inhibition of PAI-1 (Antibody Assay). Format: biochemical. Conditions: active PAI-1 bound to tPA-coated plate. Here is the method:
This assay is based upon the non-SDS dissociable interaction between tPA and active PAI-1. Assay plates are initially coated with human tPA (10 μg/ml). The test compounds are dissolved in DMSO at 10 mM, then diluted with physiologic buffer (pH 7.5) to a final concentration of 1-50 μM. The test compounds are incubated with human PAI-1 (50 ng/ml) for 15 minutes at room temperature. The tPA-coated plate is washed with a solution of 0.05% Tween 20 and 0.1% BSA, then the plate is blocked with a solution of 3% BSA. An aliquot of the test compound/PAI-1 solution is then added to the tPA-coated plate, incubated at room temperature for 1 hour, and washed. Active PAI-1 bound to the plate is assessed by adding an aliquot of a 1:1000 dilution of the 33B8 monoclonal antibody against human PAI-1, and incubating the plate at room temperature for 1 hour (Molecular Innovations, Royal Oak, Mich. The plate is again washed, and a solution of goat anti-mouse IgG-alkaline phosphatase conjugate is added at a 1:50,000 dilution in goat serum. The plate is incubated 30 minutes at room temperature, washed, and a solution of alkaline phosphatase substrate is added. The plate is incubated 45 minutes at room temperature, and color development is determined at OD405nm. The quantitation of active PAI-1 bound to tPA at varying concentrations of the test compound is used to determine the IC50. Results are analyzed using a logarithmic best-fit equation. The assay sensitivity is 5 ng/ml of human PAI-1 as determined from a standard curve ranging from 0-100 ng/ml.

The target in data set [1] is T1, recombinant human plasminogen activator inhibitor-1 (PAI-1) (Homo sapiens, UniProt P05121).
T1 construct: purchased Molecular Innovations, Royal Oak, Mich
Description: Primary Screen for the PAI-1 Inhibition. Type of data set: biochemical. The conditions noted are these: for inhibition at 25 µM: 25 μM test compound, read-out: % Inhib. 25 μM; for inhibition at 100 µM: 100 μM test compound, read-out: % Inhib. 100 μM. An outline of the steps: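 Compound (1-100 μM final, ≤0.2% DMSO) was preincubated for 1 h at room temperature with 140 nM recombinant human PAI-1 at pH 6.6. tPA was then added at 70 nM for 30 min. Residual tPA activity was measured with Spectrozyme-tPA (A405 at 0 and 60 min) and taken as relative PAI-1 inhibition.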

The target of data set [2] is T1, recombinant human plasminogen activator inhibitor-1 (PAI-1). As to the kind of experiment: Modification of the Primary Screen for the PAI-1 Inhibition (IC50). Type of data set: biochemical. The procedure: Test compounds are dissolved in DMSO at a final concentration of 10 mM, then diluted 100× in physiologic buffer. The inhibitory assay is initiated by the addition of the test compound (1-100 μM final concentration, maximum DMSO concentration of 0.2%) in a pH 6.6 buffer containing 140 nM recombinant human plasminogen activator inhibitor-1 (PAI-1; Molecular Innovations, Royal Oak, Mich.). Following a 1 hour incubation at room temperature, 70 nM of recombinant human tissue plasminogen activator (tPA) is added, and the combination of the test compound, PAI-1 and tPA is incubated for an additional 30 minutes. Following the second incubation, Spectrozyme-tPA (American Diagnostica, Greenwich, Conn.), a chromogenic substrate for tPA, is added and absorbance read at 405 nm at 0 and 60 minutes. Relative PAI-1 inhibition is equal to the residual tPA activity in the presence of the test compound and PAI-1. Control treatments include the complete inhibition of tPA by PAI-1 at the molar ratio employed (2:1), and the absence of any effect of the test compound on tPA alone.

The structures appear in SMILES notation.

T1 sequence (P05121 24-402): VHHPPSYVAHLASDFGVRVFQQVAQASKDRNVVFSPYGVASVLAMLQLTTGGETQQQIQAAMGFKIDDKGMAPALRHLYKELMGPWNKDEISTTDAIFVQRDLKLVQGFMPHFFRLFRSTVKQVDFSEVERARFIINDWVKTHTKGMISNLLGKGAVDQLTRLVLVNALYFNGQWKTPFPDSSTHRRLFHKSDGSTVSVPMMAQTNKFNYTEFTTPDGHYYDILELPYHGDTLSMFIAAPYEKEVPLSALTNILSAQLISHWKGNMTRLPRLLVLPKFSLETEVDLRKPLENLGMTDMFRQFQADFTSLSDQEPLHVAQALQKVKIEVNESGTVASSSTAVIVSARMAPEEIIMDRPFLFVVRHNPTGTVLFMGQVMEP
human PAI-1, sequence (P05121 24-402): as above

As a reminder, the IC50 is the concentration at which inhibition is half-maximal. What is called melting point is the temperature, or range, at which the solid turns liquid. Consider `CCCCc1oc2ccccc2c1C(=O)NCc1ccc2c(-c3ccccc3)c(OCc3nnn[nH]3)ccc2c1` [Example 24, 2-Butyl-benzofuran-3-carboxylic acid [5-phenyl-6-(1H-tetrazol-5-ylmethoxy)-naphthalen-2-ylmethyl]-amide], for which the melting point was in the range of 192 to 196 °C. 16.8 µM corresponded to half-maximal inhibition on human PAI-1 (IC50). In data set [1], the inhibition at 25 µM worked out at 25% and the inhibition at 100 µM turned out to be 72%. Besides, the concentration for half-maximal inhibition (IC50) in data set [2] was 9.94 µM.
The compound `CCCCc1oc2ccccc2c1C(=O)N(C)Cc1ccc2c(Br)c(OCc3nnn[nH]3)ccc2c1` [Example 31, 2-Butyl-benzofuran-3-carboxylic acid [5-bromo-6-(1H-tetrazol-5-ylmethoxy)-naphthalen-2-ylmethyl]-methyl-amide] had a melting point of 190 to 194 °C. This compound displayed an IC50 against human PAI-1 of 8.47 µM. Also, in data set [1], the inhibition at 25 µM worked out at 62% and the inhibition at 100 µM was 95%. Further, the IC50 in data set [2] was determined as 15.6 µM.
In the same order, the values of `O=C(NCc1ccc2c(Br)c(OC(Cc3ccccc3)C(=O)O)ccc2c1)c1ccc(Oc2cc(Cl)cc(Cl)c2)o1` (stereo not drawn) [Example 53, 2-[1-Bromo-6-({[5-(3,5-dichloro-phenoxy)-furan-2-carbonyl]-amino}-methyl)-naphthalen-2-yloxy]-3-phenyl-propionic acid] are 86 to 100 °C, 8.12 µM, 35%, 86% and 8.7 µM.

Values taken from patent publication US6589970B2, “6-(aryl-amido or aryl-amidomethyl)-naphthalen-2-yloxy-acidic derivatives as inhibitors of plasminogen activator inhibitor type-1 (PAI-1)” (Wyeth, priority 2001, dated 2003).
